Test results taken from article PMC11350868, “A Novel Bacitracin-like Peptide from Mangrove-Isolated Bacillus paralicheniformis NNS4-3 against MRSA and Its Genomic Insights” (Antibiotics, 2024).
“And” between values parts separate entries of the source, which are not always exact repeats. Equal entries are not always repeated.

Assay: Thermal stability (residual antibacterial activity)
Assay type: physicochemical
Conditions: AMP 10 µg/mL in purified water, agar well diffusion vs MRSA strain 2468, relative to non-treated sample, mean ± SD, triplicate
Procedure: The AMP was dissolved in sterile purified water and adjusted to a final concentration of 10 µg/mL. The sensitivity of the AMP to temperatures of 60, 80, and 100 °C as well as autoclaving at 121 °C for 15 and 30 min was evaluated. The sensitivity of the AMP to proteolytic enzymes with different digesting characteristics was studied by incubating with a concentration of 1 mg/mL of proteinase K, trypsin, and α-chymotrypsin (Sigma-Aldrich, Warren, MI, USA). Surfactant compatibility of the AMP was examined by exposing the sample to 1% SDS and 1% Triton X-100 (AppliChem GmbH, Darmstadt, Germany). The propensity of the AMP for acid and base hydrolysis was examined by adjusting the pH of the solution to 1.2, 4.5, 6.8, and 7.4. After incubation, the pH of the AMP solution was neutralized to 7.4 before being assessed for antimicrobial activity. Following all treatments, the antibacterial assay using agar well diffusion against the MRSA strain 2468 was conducted in triplicate. The stability profiles are presented as the percentage of the activity relative to the untreated conditions (mean ± SD) and statistical significance was determined by the Student’s t-test at a p-value < 0.05.

CC(C)CC(NC(=O)C(N)CCCCN)C(=O)NC(CC(C)C)C(=O)NC(CCCCN)C(=O)NC(CC(=O)O)C(=O)NC(CC(C)C)C(=O)NC(Cc1ccccc1)C(=O)NC(Cc1c[nH]cn1)C(=O)NC(CC(=O)O)C(=O)NC(CC(N)=O)C(=O)O (single isomer, unassigned) [NNS4-3 AMP]
% Residual Activity (37 °C, 1 h): 103.19 ± 3.68% | % Residual Activity (37 °C, 6 h): 100.00 ± 0.00% | % Residual Activity (37 °C, 12 h): 99.61 ± 6.44% | % Residual Activity (60 °C, 1 h): 101.82 ± 2.46% | % Residual Activity (60 °C, 6 h): 95.27 ± 4.31% | % Residual Activity (60 °C, 12 h): 90.47 ± 2.98 % | % Residual Activity (80 °C, 1 h): 97.52 ± 6.21% | % Residual Activity (80 °C, 6 h): 41.13 ± 35.62 % | % Residual Activity (100 °C, 1 h): 73.05 ± 1.57 % | % Residual Activity (100 °C, 6 h): 0.00 ± 0.00 % | % Residual Activity (100 °C, 12 h): 0.00 ± 0.00 % | % Residual Activity (autoclaving 121 °C, 15 psi, 15 min): 61% and 61.83 ± 0.74 % | % Residual Activity (autoclaving 121 °C, 15 psi, 30 min): 0.00 ± 0.00 %
